Results published in patent US8067598B2, “Heterofused piperidines as orexin antagonists” (Hoffman-La Roche Inc., priority 2007, dated 2011).
No end group written: not given here.

Key:
[1] = target: T1, human orexin-2 (hOX2) receptors (Homo sapiens, UniProt O43614); assay: Intracellular Ca2+ mobilization assay (FLIPR), CHO(dHFr-) cells expressing hOX2; assay type: cell-based; details: antagonism of orexin-A at EC80; Kb=IC50/(1+[A]/EC50); CHO(dHFr-)-OX2R cells
T1 construct: expressed in transfected cells
T1 sequence (O43614 1-444): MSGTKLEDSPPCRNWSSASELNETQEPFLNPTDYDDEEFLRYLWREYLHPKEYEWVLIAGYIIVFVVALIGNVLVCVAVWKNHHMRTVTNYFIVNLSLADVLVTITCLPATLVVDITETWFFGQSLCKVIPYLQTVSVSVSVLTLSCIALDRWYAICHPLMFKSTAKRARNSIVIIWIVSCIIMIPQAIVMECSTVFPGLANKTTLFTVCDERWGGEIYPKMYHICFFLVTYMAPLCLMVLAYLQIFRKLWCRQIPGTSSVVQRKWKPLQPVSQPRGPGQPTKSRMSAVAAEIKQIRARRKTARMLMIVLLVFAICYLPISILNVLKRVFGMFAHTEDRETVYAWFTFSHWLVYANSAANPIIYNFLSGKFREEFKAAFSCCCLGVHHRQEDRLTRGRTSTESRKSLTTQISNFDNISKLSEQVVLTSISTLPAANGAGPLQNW
Method: (§1) Intracellular Ca^2+ Mobilization Assay
(§2) The Chinese Hamster Ovary (dHFr-) mutant cell line stably expressing human orexin-1 (hOX1) or human orexin-2 (hOX2) receptors were maintained in Dulbecco's Modified Eagle Medium (1X) with GlutaMax™ 1, 4500 mg/L D-Glucose and Sodium Pyruvate (Catalog No. 31966-021, Invitrogen, Carlsbad, Calif.), 5% dialyzed fetal calf serum (Catalog No. 26400-044), 100 μg/ml penicillin and 100 μg/ml streptomycin. The cells were seeded at 5×10^4 cells/well in the poly-D-lysine treated, 96-well, black/clear-bottomed plates (Catalog No. BD356640, BD Biosciences, Palo Alto, Calif.). 24 h later, the cells were loaded for 1 h at 37° C. with 4 μM Flou-4 acetoxymethyl ester (Catalog No. F-14202, Molecular Probes, Eugene, Oreg.) in FLIPR buffer (1×HBSS, 20 mM HEPES, 2.5 mM Probenecid). Hanks' Balanced Salt Solution (HBSS) (10X) (catalog No. 14065-049) and HEPES (1M) (catalog No. 15630-056) were purchased from Invitrogen, Carlsbad, Calif. Probenecid (250 mM) (catalog No. P8761) was from Sigma, Buchs, Switzerland. The cells were washed five times with FLIPR buffer to remove excess dye and intracellular calcium mobilization, [Ca^2+]i were measured using a Fluorometric Imaging Plate Reader (FLIPR-96, Molecular Devices, Menlo Park, Calif.) as described previously (Malherbe et al., Mol. Pharmacol., 64, 823-832, 2003). Orexin A (catalog No. 1455, Toris Cookson Ltd, Bristol, UK) was used as agonist. Orexin A ([…] stock solution in DMSO) was diluted in FLIPR buffer+0.1% BSA. The EC50 and EC80 values of orexin-A were measured daily from standard agonist concentration-response curves in CHO(dHFr-)-OX1R and -OX2R cell lines. All compounds were dissolved in 100% DMSO. Inhibition curves were determined by addition of 11 concentrations (0.0001-10 μM) of inhibitory compounds and using EC80 value of orexin-A as agonist (a concentration which gave 80% of max agonist response, determined daily). The antagonists were applied 25 min (incubation at 37° C.) before the application of the agonist. Responses were measured as peak increase in fluorescence minus basal, normalized to the maximal stimulatory effect induced by EC80 value of orexin-A or orexin-B. Inhibition curves were fitted according to the Hill equation: y=100/(1+(x/IC50)^nH), where nH=slope factor using Excel-fit 4 software (Microsoft).
(§3) Kb values were calculated according to the following equation Kb=IC50/(1+[A]/EC50) where A is the concentration of agonist added which is very close to agonist EC80 value, and IC50 and EC50 values were derived from the antagonist inhibition and orexin-A or B agonist curves, respectively.

[2] = target: T2, human orexin-1 (hOX1) receptors (Homo sapiens, UniProt O43613); assay: Intracellular Ca2+ mobilization assay (FLIPR), CHO(dHFr-) cells expressing hOX1; assay type: cell-based; details: antagonism of orexin-A at EC80; Kb=IC50/(1+[A]/EC50); CHO(dHFr-)-OX1R cells
T2 construct: expressed in transfected cells
T2 sequence (O43613 1-425): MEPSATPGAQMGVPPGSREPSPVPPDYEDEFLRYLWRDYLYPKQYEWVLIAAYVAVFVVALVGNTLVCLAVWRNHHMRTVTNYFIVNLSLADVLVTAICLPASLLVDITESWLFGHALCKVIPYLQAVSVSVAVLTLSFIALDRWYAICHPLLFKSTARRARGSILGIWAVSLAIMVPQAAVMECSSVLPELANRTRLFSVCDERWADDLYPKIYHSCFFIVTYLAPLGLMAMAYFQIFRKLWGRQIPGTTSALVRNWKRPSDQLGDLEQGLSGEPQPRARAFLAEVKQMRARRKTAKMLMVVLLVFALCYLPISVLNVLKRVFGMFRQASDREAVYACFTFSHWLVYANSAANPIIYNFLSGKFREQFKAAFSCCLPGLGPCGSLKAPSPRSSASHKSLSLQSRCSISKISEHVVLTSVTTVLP
Method: as §1, §2, §3

[3] = test system: rat; details: icv administration (Piper et al., 2000); cited from earlier work

Row | Compound | Kb [1] [µM] | Kb [2] [µM] | reduction of total REM sleep [3] [%]
1 | CNC(=O)C(c1ccccc1)N1CCc2sc(C)cc2C1CCc1ccc(C(F)(F)F)cc1 (single isomer, unassigned) [Example 4, N-Methyl-2-{2-methyl-4-[2-(4-trifluoromethyl-phenyl)-ethyl]-6,7-dihydro-4H-thieno[3,2-c]pyridin-5-yl}-2-phenyl-acetamide] | 0.0204 | 0.047 | 
2 | CNC(=O)C(c1ccccc1)N1CCc2sc(C)cc2C1CCc1ccc(OC)cc1 (single isomer, unassigned) [Example 8, 2-{4-[2-(4-Methoxy-phenyl)-ethyl]-2-methyl-6,7-dihydro-4H-thieno[3,2-c]pyridin-5-yl}-N-methyl-2-phenyl-acetamide] | 0.0075 | 0.0135 | 
3 | CNC(=O)C(c1ccccc1)N1CCc2ncccc2C1CCc1ccc(OC)cc1 (single isomer, unassigned) [Example 22, 2-{5-[2-(4-Methoxy-phenyl)-ethyl]-7,8-dihydro-5H-[1,6]naphthyridin-6-yl}-N-methyl-2-phenyl-acetamide] | 0.038 | 0.105 | 
4 | CNC(=O)C(c1ccccc1)N1CCc2sc(C)c(C)c2C1CCc1ccc(OC)cc1 (single isomer, unassigned) [Example 14, 2-{4-[2-(4-Methoxy-phenyl)-ethyl]-2,3-dimethyl-6,7-dihydro-4H-thieno[3,2-c]pyridin-5-yl}-N-methyl-2-phenyl-acetamide] | 0.0036 | 0.0221 | 
5 | CNC(=O)C(c1ccccc1)N1CCc2sc(Cl)cc2C1CCc1ccc(OC)cc1 (single isomer, unassigned) [Example 17, 2-{2-Chloro-4-[2-(4-methoxy-phenyl)-ethyl]-6,7-dihydro-4H-thieno[3,2-c]pyridin-5-yl}-N-methyl-2-phenyl-acetamide] | 0.0462 | 0.0162 | 
6 | CNC(=O)C(c1ccccc1)N1CCc2sc(C)cc2C1CCc1ccc(OC)cc1 (single isomer, unassigned) [Example 7, 2-{4-[2-(4-Methoxy-phenyl)-ethyl]-2-methyl-6,7-dihydro-4H-thieno[3,2-c]pyridin-5-yl}-N-methyl-2-phenyl-acetamide] | 0.0266 | 0.0311 | 
7 | CNC(=O)C(c1ccccc1)N1CCc2ncccc2C1CCc1ccc(F)cc1 (single isomer, unassigned) [Example 28, 2-{5-[2-(4-Fluoro-phenyl)-ethyl]-7,8-dihydro-5H-[1,6]naphthyridin-6-yl}-N-methyl-2-phenyl-acetamide] | 0.0601 | 0.301 | 
8 | OX-A: orexin-A/hypocretin1 hypothalamic neuropeptide, 33 amino acids; agonist of OX1R and OX2R (QPLPDCCRQKTCSCRLYELLHGAGNHAAGILTL; ends and bridges not checked; cysteine pairing not given here; UniProt O43612 34-66, looked up) |  |  | 84
9 | CNC(=O)C(c1ccccc1)N1CCc2sc(C)c(C)c2C1CCc1ccc(OC)cc1 (single isomer, unassigned) [Example 15, 2-{4-[2-(4-Methoxy-phenyl)-ethyl]-2,3-dimethyl-6,7-dihydro-4H-thieno[3,2-c]pyridin-5-yl}-N-methyl-2-phenyl-acetamide] | 0.0169 | 0.408 | 
10 | CNC(=O)C(c1ccccc1)N1CCc2ccsc2C1CCc1ccc(C(F)(F)F)cc1 (single isomer, unassigned) [Example 16, N-Methyl-2-phenyl-2-{7-[2-(4-trifluoromethyl-phenyl)-ethyl]-4,7-dihydro-5H-thieno[2,3-c]pyridin-6-yl}-acetamide] | 0.0148 | 0.0524 | 
11 | CNC(=O)C(c1ccccc1)N1CCc2ncccc2C1CCc1cccc(OC)c1 (single isomer, unassigned) [Example 23, 2-{5-[2-(3-Methoxy-phenyl)-ethyl]-7,8-dihydro-5H-[1,6]naphthyridin-6-yl}-N-methyl-2-phenyl-acetamide] | 0.0852 | 0.223 | 

The next lines start with results.

Row | Kb [1] [µM] | Kb [2] [µM] | Compound | reduction of total REM sleep [3] [%]
12 | 0.032 | 0.0095 | CNC(=O)C(c1ccccc1)N1CCc2sc(Cl)cc2C1CCc1ccc(OC)cc1 (single isomer, unassigned) [Example 18, 2-{2-Chloro-4-[2-(4-methoxy-phenyl)-ethyl]-6,7-dihydro-4H-thieno[3,2-c]pyridin-5-yl}-N-methyl-2-phenyl-acetamide] | 
13 | 0.0091 | 0.0401 | CNC(=O)C(c1ccccc1)N1CCc2sc(C)cc2C1CCc1ccc(C(F)(F)F)cc1 (single isomer, unassigned) [Example 6, N-Methyl-2-{2-methyl-4-[2-(4-trifluoromethyl-phenyl)-ethyl]-6,7-dihydro-4H-thieno[3,2-c]pyridin-5-yl}-2-phenyl-acetamide] | 
14 | 0.0296 | 0.108 | CNC(=O)C(c1ccccc1)N1CCc2ncccc2C1CCc1cccc(OC)c1 (single isomer, unassigned) [Example 25, 2-{5-[2-(3-Methoxy-phenyl)-ethyl]-7,8-dihydro-5H-[1,6]naphthyridin-6-yl}-N-methyl-2-phenyl-acetamide] | 
15 | 0.0566 | 0.408 | CNC(=O)C(c1ccccc1)N1CCc2sc(C)cc2C1CCc1ccc(OC)cc1 (single isomer, unassigned) [Example 9, 2-{4-[2-(4-Methoxy-phenyl)-ethyl]-2-methyl-6,7-dihydro-4H-thieno[3,2-c]pyridin-5-yl}-N-methyl-2-phenyl-acetamide] | 
16 | 0.005 | 0.0402 | CNC(=O)C(c1ccccc1)N1CCc2sc(C)c(C)c2C1CCc1ccc(OC)cc1 (single isomer, unassigned) [Example 13, 2-{4-[2-(4-Methoxy-phenyl)-ethyl]-2,3-dimethyl-6,7-dihydro-4H-thieno[3,2-c]pyridin-5-yl}-N-methyl-2-phenyl-acetamide] | 
17 | 0.0215 | 0.164 | CNC(=O)C(c1ccccc1)N1CCc2ncccc2C1CCc1ccc(OC)cc1 (single isomer, unassigned) [Example 11, 2-{5-[2-(4-Methoxy-phenyl)-ethyl]-7,8-dihydro-5H-[1,6]naphthyridin-6-yl}-N-methyl-2-phenyl-acetamide] | 
18 | 0.0356 | 0.348 | CNC(=O)C(c1ccccc1)N1CCc2ncccc2C1CCc1ccc(C(F)(F)F)cc1 (single isomer, unassigned) [Example 26, N-Methyl-2-phenyl-2-{5-[2-(4-trifluoromethyl-phenyl)-ethyl]-7,8-dihydro-5H -[1,6]naphthyridin-6-yl}-acetamide] | 
